In patent EP4274570B1, “ACTIVATORS OF THE BMP/SMAD AXIS FOR USE IN TREATING AND/OR PREVENTING MUSCLE ATROPHY” (Università Degli Studi Di Torino, priority 2021, dated 2022):

How the values were obtained:
C2C12 myotubes [1] = experiment: Measurement of C2C12 myotube diameters; assay type: cell-based, murine; conditions: for C26 CM-induced atrophy (myotube diameter): 10% C26 conditioned medium, FK506 1µg/mL or siFKBP12 transfection; for hypertrophy (myotube diameter): BMP6 1ng/mL as positive control
Description: When the confluence of 80-90% is reached, they are differentiated into myotubes in DMEM/2% HS medium for 4 days.
For the signaling experiments, two hours prior to treatment, the DMEM differentiation medium without serum was changed, followed by 1h of treatment with FK506 (1 µg/mL) or BMP6 (30ng/mL).
The myotubes were analyzed 48h after transfection to establish the diameters and lysates for RNA extraction.
Photographs of the myotubes were taken using 20X magnification bright field microscopy (Zeiss) and their diameter was measured using FIJI software.

tibialis anterior = conditions: mice treated for 9 days; cited from earlier work
C2C12 myotubes [2] = experiment: Protein ubiquitination flow after proteasome inhibition (MG132) in C2C12 myotubes; assay type: cell-based, murine; conditions: FK506 1µg/mL plus Activin A 1ng/mL, with and without MG132 1µM, 1h
Description: (§1) The myotubes were treated with 10% C26 conditioned medium (C26 CM (9)) or Activin A (1ng/mL R&D # 338-AC), FK506 (1µg/mL Cayman Chemical, #10007965), BMP6 (1ng/mL R&D Systems, 6325-BM), cyclosporine A (1µM Tocris Biosciences #1101), DMH1 (5µM CAS No 1206711-16-1) or with DMEM/2%HS (CTR) differentiation medium for 24h to measure their diameter. For the signaling experiments, two hours prior to treatment, the DMEM differentiation medium without serum was changed, followed by 1h of treatment with FK506 (1 µg/mL) or BMP6 (30ng/mL). The protein ubiquitination flow was measured by treating in C2C12 myotubes with FK506 1µg/mL, Activin A 1ng/mL (ACTA), and the combination of the two, with and without MG132 proteasome inhibitor (Senta Cruz Biotechnology, SC-351846), 1µM for 1h.
(§2) C2C12 myotubes were lysed in RIPA lysis buffer (150mM NaCl, 50mM Tris-HCl, 0.5% sodium deoxycholate, 1.0% Triton X-100, 0.1% SDS, and 1mM EDTA) with protease and phosphatase inhibitors (Roche, #0490837001, #11697498001). The protein concentration was determined using the BCA assay (Thermo Fisher Scientific). 15µg of proteins from cell lysates were loaded for performing SDS-PAGE, then transferred onto PVDF membrane for immunoblotting analysis. The primary antibodies used are: SMAD1 (Cell Signaling, #9743), P-SMAD1/5 (Cell Signaling, #13820T), vinculin (Cell Signaling #4650), ubiquitin (Abcam, #7780).

[3] = test system: pGL3-BMP responsive element (BRE)-Luc; experiment: Luciferase assay with pGL3-BMP responsive element (BRE)-Luc reporter in C2C12 myoblasts; assay type: cell-based, murine; conditions: FK506 1µg/mL, 5h, compared with BMP6 1ng/mL
Description: C2C12 myoblasts were transfected with the pGL3-BMP responsive element (BRE)-Luc plasmid (Addgene #45126) to measure the promoter activation by the SMAD1/5/8 proteins. The cells were treated with FK506 (1µg/mL) or BMP6 (1ng/mL) 15h posttransfection. The luminescence was measured using Dual-Luciferase Reporter Assay System (Promega) after 5h of treatment according to the manufacturer's instructions.

SMAD1/5 = experiment: Western blot of SMAD1/5 phosphorylation in C2C12 myotubes; assay type: cell-based, murine; conditions: FK506 1µg/mL
Description: as §1, §2

[4] = test system: BMP-SMAD1/5/8 signaling pathway; conditions: hepatocytes; cited from earlier work
[5] = test system: post-transplant diabetes mellitus rats; conditions: 1 mg/kg/d; cited from earlier work
immune populations = experiment: FACS of immune populations in blood, spleens and tumors of C26 mice; assay type: in vivo; conditions: FK506 0.02 mg/Kg daily oral
Description: The blood was extracted and incubated with erythrocyte lysis buffer for 10 minutes at room temperature. After washing with PBS, the cells were collected, incubated with Fc-receptor blocker (anti-CD16/CD32 antibody, BD Bioscience #101302) and stained for 30 minutes at 4°C with the antibodies.
The primary tumors were extracted, crushed, and digested with collagenase IV (1mg/mL) (Sigma Aldrich #C4-28) in RPMI-1640 at 37°C for 1h. After washing the tissues with RPMI-1640/10% FBS, the suspension was passed through a 70-µm pore filter, centrifuged at 1400rpm for 10 minutes and incubated with the erythrocyte lysis buffer (155 mM NH4Cl, 15.8 mM Na2CO3, 1 mM EDTA, pH 7.3) for 10 minutes at room temperature. After washing with RPMI-1640/10% FBS, 1 million cells were resuspended in PBS, treated with Fc-receptor blocker (anti-CD16/CD32 antibody, BD Bioscience #101302) and stained for 30 minutes at 4°C with the antibodies.

Balb C mice = experiment: Hypertrophy experiment in Balb C mice without tumor, oral treatment; assay type: in vivo
Description: (§3) FK506 (Cayman Chemical, #10007965) was dissolved in DMSO (5mg/mL) and then diluted in a 5% glucose and water solution for oral administration in order to reach the final concentration of 0.02mg/kg. All the mice were subjected to one day of treatment, prior to inoculation of colon-26 (C26) adenocarcinoma cells into the right flank of three-month-old Balb C females (Charles River #028) (0.7x10^6 cells/mouse). All the mice were treated daily with FK506 (0.02 mg/Kg) or 5% glucose buffer DMSO vehicle.
(§4) The gastrocnemii, tumors, and subcutaneous and inguinal adipose tissue were isolated, weighed, and normalized for the tibia length of each mouse.
4-month-old Balb C females were treated orally every day for 4 weeks (5 days per week), with 0.02mg/Kg/day FK506 in 5% glucose solution or with vehicle (CTR). The maximum strength was measured weekly with the Grip Strength Test.

[6] = test system: Colon-26 (C26) murine tumor cachexia model; experiment: Colon-26 (C26) tumor cachexia model, oral treatment; assay type: in vivo; conditions: C26 mice, FK506 0.02 mg/Kg daily oral
Description: as §3
Maximum muscle strength was measured on the day of inoculation (day 0) and the day of sacrifice (day 11) using the Grip Strength Test (Bioseb).
as §4
The fresh gastrocnemii were frozen in liquid nitrogen-cooled isopentane and stored at -80°C. 7µm cross-sections were performed using a cryostat. Immunofluorescence was performed by securing the tissues in 4% PFA, blocking with […] in PBS before incubating with the primary antibody for laminin (sc-59854), and with the secondaries (ALEXA488) and DAPI (Abcam 228549). The photographs were taken with a fluorescence microscope to evaluate the cross-sectional area of the fibers.
The total RNA from the frozen tissues was extracted with TRIzol reagent (Invitrogen) following the manufacturer's instructions. 0.5-1µg of total RNA were retrotranscribed using High Capacity cDNA Reverse Transcriptase kit (Applied Biosystems). The cDNA was analyzed with Real Time Quantitative PCR (ABI PRISM 7900HT FAST Real-Time PCR system, Applied Biosystems) using Luna Universal Probe qPCR master mix (Nebb) and Universal Probe Library system (Roche Applied Science). The relative mRNA levels were calculated using the 2-ΔΔCT method and normalizing for the GAPDH levels. The following primers were used: Atrogin1 F: 5'-[…]-3' (SEQ ID No. 1), R: 5' […]-3' (SEQ ID No. 2); Murf1 F: 5'[…]-3' (SEQ ID No. 3), R: 5'-tcgtcttcgtgttccttgc-3' (SEQ ID No. 4); Musa1 F: 5'-gagaagccagggtttgagc-3' (SEQ ID No. 5), R: 5'-[…]-3' (SEQ ID No. 6); Cathepsin L F: 5'-[…]-3' (SEQ ID No. 7), R: 5'-[…]-3' (SEQ ID No. 8); FKBP12 F: 5'-atgggagtgcaggtggag-3' (SEQ ID No. 9), R: 5'-[…]-3' (SEQ ID No. 10). GAPDH F: 5'-[…]-3' (SEQ ID No. 11), R: 5'-[…]-3' (SEQ ID No. 12).

CC(C)Oc1ccc(-c2cnc3c(-c4ccnc5ccccc45)cnn3c2)cc1 [DMH1]
effect of DMH1 on tacrolimus-induced hypertrophy and protection from C26 CM-induced atrophy (myotube diameter) (C2C12 myotubes [1]; DMH1 5µM, FK506 1µg/mL, 10% C26 CM, 24h): nullifies both the hypertrophic effect of tacrolimus and the protection of C26 (C26 CM) tumor medium-induced atrophy

c1ccc2c(-c3cnn4cc(-c5ccc(N6CCNCC6)cc5)cnc34)ccnc2c1 [LDN-193189]
atrophy in the myofibers of the tibialis anterior (tibialis anterior): 21% | baseline phosphorylation levels of Smad1/5/8 (tibialis anterior): reduction in baseline phosphorylation levels of Smad1/5/8

C=CC[C@@H]1/C=C(\C)C[C@H](C)C[C@H](OC)[C@H]2O[C@@](O)(C(=O)C(=O)N3CCCC[C@H]3C(=O)O[C@H](/C(C)=C/[C@@H]3CC[C@@H](O)[C@H](OC)C3)[C@H](C)[C@@H](O)CC1=O)[C@H](C)C[C@@H]2OC [tacrolimus]
ACTA-induced increase in protein ubiquitination (C2C12 myotubes [2]): completely reversed | BRE-Luc reporter activation [3]: capable of exceeding the BMP6 positive control in reporter activation | phosphorylation levels of SMAD1/5 (SMAD1/5; 1h, without stimulation by any extracellular ligand): capable of increasing the phosphorylation levels of SMAD1/5 | effect of tacrolimus on phosphorylation of the Smad1/5/8 proteins under ALK2 silencing (SMAD1/5; siALK2-transfected C2C12 myotubes): nullifies the effect of tacrolimus | phosphorylation of SMAD 1/5/8 proteins [4]: increasing the phosphorylation of SMAD 1/5/8 proteins | transcription of their epcidin target [4]: increasing | muscle atrophy at high immunosuppressive doses [5]: induces muscle atrophy | amount and state of activation of the main immune populations (immune populations): has no effect on these parameters | C26 CM-induced atrophy (myotube diameter) (C2C12 myotubes [1]; 24h, listed as FK506): capable of preventing C26 CM-induced atrophy | C26 CM-induced atrophy (myotube diameter) (C2C12 myotubes [1]; 24h, listed as Tacrolimus): capable of preventing | hypertrophy (myotube diameter) (C2C12 myotubes [1]; FK506 1µg/mL, 24h, listed as FK506): capable of inducing significant hypertrophy | hypertrophy (myotube diameter) (C2C12 myotubes [1]; FK506 1µg/mL, 24h, listed as Tacrolimus): induces levels of hypertrophy comparable to BMP6 | ACTA-induced atrophy (myotube diameter) (C2C12 myotubes [1]; FK506 1µg/mL, Activin A 1ng/mL, 24h): capable of preventing | effect of tacrolimus on myotube diameter under ALK2 silencing (C2C12 myotubes [1]; siALK2-transfected C2C12 myotubes, FK506 1µg/mL): nullifies the effect of tacrolimus | maximum muscle strength (Grip Strength test) (Balb C mice; 0.02mg/Kg/day oral, 4 weeks, day 29, versus vehicle (CTR)): significantly increases maximum muscle strength | muscle mass (Balb C mice; oral non-immunosuppressive doses, 11 days): capable of increasing the mass of the quadriceps | body weight loss ([6]; 11 days): capable of preventing | fat loss (subcutaneous and inguinal adipose tissue) ([6]; 11 days): capable of preventing | weight of the tumor ([6]; at sacrifice): without altering the weight of the tumor | maximum muscle strength (Grip Strength test) ([6]; end of the experiment (day 11)): increased maximum muscle strength | expression of atrogens (Atrogin 1, MuRF-1, Musa1, Cathepsin L mRNA) in the gastrocnemii ([6]; normalized for GAPDH): reduced expression of all the atrogens | muscle atrophy in terms of muscle fiber diameter ([6]; gastrocnemius cross-section): capable of preventing muscle atrophy | muscle atrophy in terms of skeletal muscle weight ([6]; gastrocnemius weight normalized for tibia length): capable of preventing muscle atrophy
